Test results reported in article PMC5398486, “Cheminformatics-aided discovery of small-molecule Protein-Protein Interaction (PPI) dual inhibitors of Tumor Necrosis Factor (TNF) and Receptor Activator of NF-κB Ligand (RANKL)” (PLoS Computational Biology, 2017).
Values after ≈ are worked out from the molar mass of the structure shown. Where two headings read alike, the source gives them in different places. Marks after values point to notes of the source that are not given here. Blank lines part the entries; values can stand above or below the molecule they belong to.

Tests used:
[1] = PEG3350 0% v/v; cited from earlier work
[2] = test system: L929 cells; design: method as in PMID 25160057; conditions: compound alone, read-out: L929 LC50; cited from earlier work
[3] = biological target: T1, RANKL (Homo sapiens, UniProt O14788); assay: Fluorescence-based binding affinity assay, RANKL
T1 sequence (O14788 143-317): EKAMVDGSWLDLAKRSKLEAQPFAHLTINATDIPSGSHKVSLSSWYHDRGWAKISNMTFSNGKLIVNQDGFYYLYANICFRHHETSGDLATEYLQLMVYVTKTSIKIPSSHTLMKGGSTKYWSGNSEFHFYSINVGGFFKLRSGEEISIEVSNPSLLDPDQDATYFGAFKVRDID
Description: For use in the binding assays, recombinant TNF and RANKL were expressed and purified as previously described.[84–86] Fluorescence intensity was measure with a Synergy H1 Multi-Mode Reader (BioTek) in 96-well microplates (black) at 25°C. […] During preparation of the solutions the buffer was firstly added to all wells followed by the ligand solution and finally the protein was added. All solutions were mixed by pipetting and equilibrated for 1h at 25°C before measurement. […] Experiments were performed for TNF in 10 mM citrate-phosphate (pH 6.5) and for RANKL in 25 mM Tris–HCl buffer, 100 mM NaCl (pH 7.5); both buffers were supplemented with PEG3350 at the concentrations indicated in the respective figures. Kd values were calculated as mean ± SEM from three independent experiments.
Differences in fluorescence intensity between the protein/ligand complex and free protein (or free ligand) were analysed as previously described in [Papaneophytou et al. (2013) ACS Med Chem Lett. 4: 137-141] (Eq. S6) in order to determine the dissociation constant (Kd) of the various protein-ligand systems.
In Eq. (S6) Fobs is the observed fluorescence intensity; FBG is the fluorescence background signal; MFLF [picture] and PF are the molar fluorescence and concentration of free protein, respectively; FR is the fluorescence ratio of bound protein (or bound ligand in the case of a fluorescence ligand); LT and PT are the total concentrations of ligand and protein, respectively. A detailed analysis of the development of the fluorescence ligand-binding assay is given in [Papaneophytou et al. (2013) ACS Med Chem Lett. 4: 137-141].

[4] = Solubility with PEG3350 as co-solvent; format: physicochemical; conditions: PEG3350 2.5% v/v
Text: PEG3350 was used as co-solvent in order to enhance inhibitors solubility and thus eliminate the possibility of aggregates formation. | column: Solubility (μM)

[5] = biological target: the molecule itself; assay: cross-linking; 100 ng recombinant human TNF or RANKL, with or without inhibitors (30 min, room temperature), cross-linked with 4.8 mM BS3 for 30 min at room temperature; SDS-PAGE and western blot

Kd ([3]; RANKL 0.5 μM, PEG3350 2.5%, 25 mM Tri-HCl, 100 mM NaCl pH 7.5, read-out: Binding affinity (Kd), RANKL): 14.2 ± 0.68 µM | Kd ([3]; RANKL 0.5 μM, PEG3350 5%, 25 mM Tri-HCl, 100 mM NaCl pH 7.5, read-out: Binding affinity (Kd), RANKL): 13.8 ± 0.73 µM | Kd ([3]; fluorescence assay, 25°C, 25 mM Tris-HCl, 100 mM NaCl, pH 7.5, 5% PEG3350, read-out: Kd (RANKL complexes)): 13.8 ± 0.7 µM | solubility [4]: 71 µM (≈ 38.9 µg/mL)
Molecule: Cc1cc2occ(CN(C)CCN(C)Cc3cn(-c4cccc(C(F)(F)F)c4)c4ccccc34)c(=O)c2cc1C [SPD304, InChI = 1S/C32H32F3N3O2/c1-21-14-28-30(15-22(21)2)40-20-24(31(28)39)18-37(4)13-12-36(3)17-23-19-38(29-11-6-5-10-27(23)29)26-9-7-8-25(16–26)32(33,34)35/h5-11,14–16,19-20H,12–13,17-18H2,1-4H3, reference compound]
solubility [1]: 10^b μM | CC50 [2]: 7.5 ± 0.2 µM

B1: recombinant human RANKL (Receptor activator of nuclear factor kappa-B ligand) (ligand, UniProt O14788 140-317, looked up)
chain: IRAEKAMVDGSWLDLAKRSKLEAQPFAHLTINATDIPSGSHKVSLSSWYHDRGWAKISNMTFSNGKLIVNQDGFYYLYANICFRHHETSGDLATEYLQLMVYVTKTSIKIPSSHTLMKGGSTKYWSGNSEFHFYSINVGGFFKLRSGEEISIEVSNPSLLDPDQDATYFGAFKVRDID
notes: source: bought: Peprotech
stoichiometry N [5]: 3
